In ChEMBL document CHEMBL4052617, “Antibacterial activity of N-methylbenzofuro[3,2-b]quinoline and N-methylbenzoindolo[3,2-b]-quinoline derivatives and study of their mode of action” (2017):

Assays:
Assay type in all cases: functional
Enterococcus faecium [1] = assay: Antibacterial activity against vancomycin-resistant Enterococcus faecium ATCC 700221 after 18 hrs by brain heart infusion broth microdilution method; settings: ATCC 700221, 18 h
Escherichia coli [2] = assay: Antibacterial activity against Escherichia coli ATCC 25922 after 18 hrs by Mueller-Hinton broth microdilution method; settings: ATCC 25922, 18 h
Enterococcus faecium [3] = assay: Antibacterial activity against antibiotic-susceptile Enterococcus faecium ATCC 49624 after 18 hrs by brain heart infusion broth microdilution method; settings: ATCC 49624, 18 h
Staphylococcus aureus [4] = assay: Antibacterial activity against methicillin-resistant Staphylococcus aureus ATCC BAA41 after 18 hrs by cation adjusted Mueller-Hinton broth microdilution method; settings: ATCC BAA41, 18 h
Klebsiella pneumoniae = assay: Antibacterial activity against Klebsiella pneumoniae ATCC BAA2470 expressing NDM-1 beta-lactamase after 18 hrs by Mueller-Hinton broth microdilution method; settings: ATCC BAA2470, 18 h
Bacillus subtilis = assay: Antibacterial activity against Bacillus subtilis 168 after 18 hrs by Mueller-Hinton broth microdilution method; settings: subsp. subtilis str. 168, 18 h
Pseudomonas aeruginosa = assay: Antibacterial activity against multidrug-resistant Pseudomonas aeruginosa ATCC BAA2108 after 18 hrs by Mueller-Hinton broth microdilution method; settings: ATCC BAA2108, 18 h
Escherichia coli [5] = assay: Antibacterial activity against Escherichia coli ATCC […] expressing NDM-1 beta-lactamase after 18 hrs by Mueller-Hinton broth microdilution method
Staphylococcus aureus [6] = assay: Antibacterial activity against Staphylococcus aureus ATCC 29213 after 18 hrs by cation adjusted Mueller-Hinton broth microdilution method; settings: ATCC 29213, 18 h

## Cc1ccccc1Nc1c2ccccc2[n+](C)c2c1oc1ccccc12.[I-]
Enterococcus faecium [1]
  MIC: 12 µg/mL
Escherichia coli [2]
  MIC: 16 µg/mL
Enterococcus faecium [3]
  MIC: 12 µg/mL
Staphylococcus aureus [4]
  MIC: 8 µg/mL
Klebsiella pneumoniae
  MIC: > 64 µg/mL
Bacillus subtilis
  MIC: 8 µg/mL
Pseudomonas aeruginosa
  MIC: > 64 µg/mL
Escherichia coli [5]
  MIC: 16 µg/mL
Staphylococcus aureus [6]
  MIC: 8 µg/mL

## Cc1ccc(Nc2c3ccccc3[n+](C)c3c2[nH]c2ccccc23)cc1F.[I-]
Enterococcus faecium [1]
  MIC: 8 µg/mL
Escherichia coli [2]
  MIC: 8 µg/mL
Enterococcus faecium [3]
  MIC: 8 µg/mL
Staphylococcus aureus [4]
  MIC: 4 µg/mL
Klebsiella pneumoniae
  MIC: 64 µg/mL
Bacillus subtilis
  MIC: 4 µg/mL
Pseudomonas aeruginosa
  MIC: 64 µg/mL
Escherichia coli [5]
  MIC: 8 µg/mL
Staphylococcus aureus [6]
  MIC: 4 µg/mL

## C[n+]1c2ccccc2c(Nc2cccc(F)c2)c2oc3ccccc3c21.[I-]
Enterococcus faecium [1]
  MIC: 12 µg/mL
Escherichia coli [2]
  MIC: 16 µg/mL
Enterococcus faecium [3]
  MIC: 12 µg/mL
Staphylococcus aureus [4]
  MIC: 8 µg/mL
Klebsiella pneumoniae
  MIC: > 64 µg/mL
Bacillus subtilis
  MIC: 8 µg/mL
Pseudomonas aeruginosa
  MIC: > 64 µg/mL
Escherichia coli [5]
  MIC: 16 µg/mL
Staphylococcus aureus [6]
  MIC: 8 µg/mL

## COc1cccc(Nc2c3ccccc3[n+](C)c3c2[nH]c2ccccc23)c1.[I-]
Enterococcus faecium [1]
  MIC: 8 µg/mL
Escherichia coli [2]
  MIC: 8 µg/mL
Enterococcus faecium [3]
  MIC: 8 µg/mL
Staphylococcus aureus [4]
  MIC: 4 µg/mL
Klebsiella pneumoniae
  MIC: > 64 µg/mL
Bacillus subtilis
  MIC: 4 µg/mL
Pseudomonas aeruginosa
  MIC: > 64 µg/mL
Escherichia coli [5]
  MIC: 8 µg/mL
Staphylococcus aureus [6]
  MIC: 4 µg/mL

## C[n+]1c2ccccc2c(Nc2ccccc2)c2oc3ccccc3c21.[I-]
Enterococcus faecium [1]
  MIC: 12 µg/mL
Escherichia coli [2]
  MIC: 16 µg/mL
Enterococcus faecium [3]
  MIC: 12 µg/mL
Staphylococcus aureus [4]
  MIC: 8 µg/mL
Klebsiella pneumoniae
  MIC: > 64 µg/mL
Bacillus subtilis
  MIC: 8 µg/mL
Pseudomonas aeruginosa
  MIC: > 64 µg/mL
Escherichia coli [5]
  MIC: 16 µg/mL
Staphylococcus aureus [6]
  MIC: 8 µg/mL

## C[n+]1c2ccccc2c(Nc2ccc(OC(F)(F)F)cc2)c2oc3ccccc3c21.[I-]
Enterococcus faecium [1]
  MIC: 6 µg/mL
Escherichia coli [2]
  MIC: 8 µg/mL
Enterococcus faecium [3]
  MIC: 6 µg/mL
Staphylococcus aureus [4]
  MIC: 4 µg/mL
Klebsiella pneumoniae
  MIC: 64 µg/mL
Bacillus subtilis
  MIC: 4 µg/mL
Pseudomonas aeruginosa
  MIC: 64 µg/mL
Escherichia coli [5]
  MIC: 8 µg/mL
Staphylococcus aureus [6]
  MIC: 4 µg/mL

## C[n+]1c2ccccc2c(Nc2ccccc2)c2[nH]c3ccccc3c21.[I-]
Enterococcus faecium [1]
  MIC: 8 µg/mL
Escherichia coli [2]
  MIC: 12 µg/mL
Enterococcus faecium [3]
  MIC: 8 µg/mL
Staphylococcus aureus [4]
  MIC: 6 µg/mL
Klebsiella pneumoniae
  MIC: > 64 µg/mL
Bacillus subtilis
  MIC: 6 µg/mL
Pseudomonas aeruginosa
  MIC: > 64 µg/mL
Escherichia coli [5]
  MIC: 12 µg/mL
Staphylococcus aureus [6]
  MIC: 6 µg/mL

## Cc1ccc(Nc2c3ccccc3[n+](C)c3c2[nH]c2ccccc23)cc1C.[I-]
Enterococcus faecium [1]
  MIC: 8 µg/mL
Escherichia coli [2]
  MIC: 8 µg/mL
Enterococcus faecium [3]
  MIC: 8 µg/mL
Staphylococcus aureus [4]
  MIC: 4 µg/mL
Klebsiella pneumoniae
  MIC: > 64 µg/mL
Bacillus subtilis
  MIC: 4 µg/mL
Pseudomonas aeruginosa
  MIC: > 64 µg/mL
Escherichia coli [5]
  MIC: 8 µg/mL
Staphylococcus aureus [6]
  MIC: 4 µg/mL

## COc1ccccc1Nc1c2ccccc2[n+](C)c2c1[nH]c1ccccc12.[I-]
Enterococcus faecium [1]
  MIC: 8 µg/mL
Escherichia coli [2]
  MIC: 8 µg/mL
Enterococcus faecium [3]
  MIC: 8 µg/mL
Staphylococcus aureus [4]
  MIC: 4 µg/mL
Klebsiella pneumoniae
  MIC: 64 µg/mL
Bacillus subtilis
  MIC: 4 µg/mL
Pseudomonas aeruginosa
  MIC: 64 µg/mL
Escherichia coli [5]
  MIC: 8 µg/mL
Staphylococcus aureus [6]
  MIC: 4 µg/mL

## CCc1ccc(Nc2c3ccccc3[n+](C)c3c2[nH]c2ccccc23)cc1.[I-]
Enterococcus faecium [1]
  MIC: 6 µg/mL
Escherichia coli [2]
  MIC: 8 µg/mL
Enterococcus faecium [3]
  MIC: 6 µg/mL
Staphylococcus aureus [4]
  MIC: 4 µg/mL
Klebsiella pneumoniae
  MIC: 64 µg/mL
Bacillus subtilis
  MIC: 4 µg/mL
Pseudomonas aeruginosa
  MIC: 64 µg/mL
Escherichia coli [5]
  MIC: 8 µg/mL
Staphylococcus aureus [6]
  MIC: 4 µg/mL

## CCOc1ccccc1Nc1c2ccccc2[n+](C)c2c1[nH]c1ccccc12.[I-]
Enterococcus faecium [1]
  MIC: 6 µg/mL
Escherichia coli [2]
  MIC: 8 µg/mL
Enterococcus faecium [3]
  MIC: 6 µg/mL
Staphylococcus aureus [4]
  MIC: 4 µg/mL
Klebsiella pneumoniae
  MIC: 64 µg/mL
Bacillus subtilis
  MIC: 4 µg/mL
Pseudomonas aeruginosa
  MIC: 64 µg/mL
Escherichia coli [5]
  MIC: 8 µg/mL
Staphylococcus aureus [6]
  MIC: 4 µg/mL

## COc1ccc2cc3[n+](cc2c1OC)CCc1cc2c(cc1-3)OCO2.[Cl-] [BERBERINE CHLORIDE]
Enterococcus faecium [1]
  MIC: > 192 µg/mL
Escherichia coli [2]
  MIC: > 192 µg/mL
Enterococcus faecium [3]
  MIC: > 192 µg/mL
Staphylococcus aureus [4]
  MIC: 192 µg/mL
Klebsiella pneumoniae
  MIC: > 192 µg/mL
Bacillus subtilis
  MIC: 128 µg/mL
Pseudomonas aeruginosa
  MIC: > 192 µg/mL
Escherichia coli [5]
  MIC: > 192 µg/mL
Staphylococcus aureus [6]
  MIC: 128 µg/mL
